Read-outs that look alike come from different tables or passages of the source.
How the values were obtained:
Assay type in all cases: in vivo
Cercospora beticola = assay: Leaf Spot of Sugar Beets fungicidal activity (CERCBE); conditions: 24 h, 1 Day Protectant, sugar beet, read-out: Disease Control CERCBE 1DP
Procedure: Technical grades of materials were dissolved in acetone, which were then mixed with nine volumes of water containing 110 ppm Triton X-100. The fungicide solutions were applied onto wheat seedlings using an automated booth sprayer to run-off. All sprayed plants were allowed to air dry prior to further handling. All fungicides were evaluated using the aforementioned method for their activity vs. all target diseases. Wheat leaf blotch and brown rust activity were also evaluated using track spray applications, in which case the fungicides were formulated as EC formulations, containing 0.1% Trycol 5941 in the spray solutions. Wheat plants (variety Yuma) were grown from seed in a greenhouse in 50% mineral soil/50% soil-less Metro mix until the first leaf was fully emerged, with 7-10 seedlings per pot. These plants were inoculated with an aqueous spore suspension of Septoria tritici either prior to or after fungicide treatments. After inoculation the plants were kept in 100% relative humidity (one day in a dark dew chamber followed by two to three days in a lighted dew chamber at 20° C.) to permit spores to germinate and infect the leaf. The plants were then transferred to a greenhouse set at 20° C. for disease to develop. When disease symptoms were fully expressed on the 1st leaves of untreated plants, infection levels were assessed on a scale of 0 to 100 percent disease severity. Percent disease control was calculated using the ratio of disease severity on treated plants relative to untreated plants. Evaluation of Fungicidal Activity: Leaf Spot of Sugar Beets (Cercospora beticola; Bayer Code CERCBE) Sugar beet plants (variety HH88) were grown in soil-less Metro mix and trimmed regularly to maintain a uniform plant size prior to test. Plants were inoculated with a spore suspension 24 hr after fungicide treatments. Inoculated plants were kept in a dew chamber at 22° C. for 48 hr then incubated in a greenhouse set at 24° C. under a clear plastic hood with bottom ventilation until disease symptoms were fully expressed. Fungicide formulation, application and disease assessment on the sprayed leaves followed the procedures as described in the Example A.

Puccinia triticina = assay: Wheat Brown Rust fungicidal activity (PUCCRT); conditions: Puccinia triticina; for pest or weed control at 100 ppm: rate 100 ppm; for pest or weed control at 121.5 g/ha: rate 121.5 g/H
Procedure, shortened: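 Yuma wheat seedlings at first-leaf stage sprayed to run-off (acetone solution in water with 110 ppm Triton X-100) or track-sprayed as EC with 0.1% Trycol 5941; inoculated with P. triticina spores before or after treatment. Overnight dark dew at 22° C., then greenhouse 24° C.; disease severity 0–100% gives percent control vs untreated.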

Alternaria solani = assay: Tomato Early Blight fungicidal activity (ALTESO); conditions: 24 h, 1 Day Protectant, read-out: Disease Control ALTESO 1DP
Procedure: Technical grades of materials were dissolved in acetone, which were then mixed with nine volumes of water containing 110 ppm Triton X-100. The fungicide solutions were applied onto wheat seedlings using an automated booth sprayer to run-off. All sprayed plants were allowed to air dry prior to further handling. All fungicides were evaluated using the aforementioned method for their activity vs. all target diseases. Wheat leaf blotch and brown rust activity were also evaluated using track spray applications, in which case the fungicides were formulated as EC formulations, containing 0.1% Trycol 5941 in the spray solutions. Wheat plants (variety Yuma) were grown from seed in a greenhouse in 50% mineral soil/50% soil-less Metro mix until the first leaf was fully emerged, with 7-10 seedlings per pot. These plants were inoculated with an aqueous spore suspension of Septoria tritici either prior to or after fungicide treatments. After inoculation the plants were kept in 100% relative humidity (one day in a dark dew chamber followed by two to three days in a lighted dew chamber at 20° C.) to permit spores to germinate and infect the leaf. The plants were then transferred to a greenhouse set at 20° C. for disease to develop. When disease symptoms were fully expressed on the 1st leaves of untreated plants, infection levels were assessed on a scale of 0 to 100 percent disease severity. Percent disease control was calculated using the ratio of disease severity on treated plants relative to untreated plants. Evaluation of Fungicidal Activity: Tomato Early Blight (Alternaria solani; Bayer Code […]) Tomato plants (variety Outdoor girl) were propagated in soil-less Metro mix, with each pot having one plant, and used when 12 to 14 days old. Test plants were inoculated with an aqueous spore suspension of Alternaria solani 24 hr after fungicide treatments. After inoculation the plants were kept in 100% relative humidity (one day in a dark dew chamber followed by two to three days in a lighted dew chamber at 20° C.) to permit spores to germinate and infect the leaf. The plants were then transferred to a growth room at 22° C. for disease to develop. Fungicide formulation, application and disease assessment on the sprayed leaves followed the procedures as described in the Example A.

[1] = 24 h, 1 Day Protectant, read-out: Disease control PUCCRT 1DP
[2] = 72 h, 3 Day Curative, read-out: Disease control PUCCRT 3DC

| SMILES | pest or weed control at 100 ppm (Cercospora beticola) [%] | pest or weed control at 100 ppm (Puccinia triticina; [1]) [%] | pest or weed control at 121.5 g/ha (Puccinia triticina; [1]) [%] | pest or weed control at 100 ppm (Puccinia triticina; [2]) [%] | pest or weed control at 121.5 g/ha (Puccinia triticina; [2]) [%] | pest or weed control at 100 ppm (Alternaria solani) [%] |
| --- | --- | --- | --- | --- | --- | --- |
| COc1ccnc(C(=O)N[C@H]2COC[C@H](Cc3ccc(F)cc3)[C@@H](OCC(C)C)[C@H](C)OC2=O)c1OC(C)=O [Compound F60] | 80 to 100 | 80 to 100 | 80 to 100 | 80 to 100 | 80 to 100 |  |
| COc1ccnc(C(=O)N[C@H]2COC[C@H](Cc3ccc(Cl)cc3Cl)[C@@H](OC(=O)C(C)C)[C@H](C)OC2=O)c1OC(C)=O [Compound F73] | 80 to 100 | 80 to 100 | 80 to 100 | 80 to 100 | 0 to 80 | 0 to 80 |
| COc1ccnc(C(=O)N[C@H]2COC[C@H](Cc3ccc(C)cc3)[C@@H](OCC(C)C)[C@H](C)OC2=O)c1OC(C)=O [Compound F80] | 80 to 100 | 80 to 100 | 80 to 100 | 80 to 100 | 80 to 100 | 80 to 100 |
| COc1ccnc(C(=O)N[C@H]2COC[C@H](CCc3ccccc3)[C@@H](OCC(C)C)[C@H](C)OC2=O)c1OCOC(C)=O [Compound F82] | 0 to 80 | 80 to 100 | 80 to 100 | 80 to 100 | 80 to 100 | 0 to 80 |
| COc1ccnc(C(=O)N[C@H]2COC[C@H](Cc3cccc4ccccc34)[C@@H](OC(=O)C(C)C)[C@H](C)OC2=O)c1OCOC(C)=O [Compound F83, (3S,6S,7R,8S)-3-(3-(acetoxymethoxy)-4-methoxypicolin-amido)-6-methyl-8-(naphthalen-1-ylmethyl)-4-oxo-1,5-dioxonan-7-yl isobutyrate] | 80 to 100 | 80 to 100 | 80 to 100 | 80 to 100 | 0 to 80 |  |
| COc1ccnc(C(=O)N[C@H]2COC[C@H](Cc3ccc(F)cc3)[C@@H](OCC(C)C)[C@H](C)OC2=O)c1OCOC(C)=O [Compound F96] | 80 to 100 | 80 to 100 | 80 to 100 | 80 to 100 | 80 to 100 | 80 to 100 |
| COc1ccnc(C(=O)N[C@H]2COC[C@H](CC(F)(F)F)[C@@H](OC3CCCC3)[C@H](C)OC2=O)c1OCOC(C)=O [Compound F105] | 80 to 100 | 80 to 100 | 80 to 100 | 80 to 100 | 80 to 100 | 0 to 80 |
| COc1ccnc(C(=O)N[C@H]2COC[C@H](CCC(C)C)[C@@H](OCCCC(F)(F)F)[C@H](C)OC2=O)c1OCOC(C)=O [Compound F107] | 80 to 100 | 80 to 100 | 80 to 100 | 80 to 100 | 80 to 100 | 80 to 100 |
| COc1ccnc(C(=O)N[C@H]2COC[C@H](CCC(C)C)[C@@H](OC(=O)C3CC3)[C@H](C)OC2=O)c1OCOC(C)=O [Compound F108] | 80 to 100 | 80 to 100 | 80 to 100 | 80 to 100 | 80 to 100 | 80 to 100 |
| COc1ccnc(C(=O)N[C@H]2COC[C@H](Cc3ccc(Cl)cc3Cl)[C@@H](OC(=O)C(C)C)[C@H](C)OC2=O)c1OCOC(C)=O [Compound F110] | 80 to 100 | 80 to 100 | 80 to 100 | 80 to 100 | 0 to 80 | 80 to 100 |
| COc1ccnc(C(=O)N[C@H]2COC[C@H](CC3CCCC3)[C@@H](OC(=O)C(C)C)[C@H](C)OC2=O)c1OCOC(C)=O [Compound F114] | 80 to 100 | 80 to 100 | 80 to 100 | 80 to 100 | 80 to 100 | 80 to 100 |
| COc1ccnc(C(=O)N[C@H]2COC[C@H](Cc3ccc(C)cc3)[C@@H](OCC(C)C)[C@H](C)OC2=O)c1OCOC(C)=O [Compound F117] | 80 to 100 | 80 to 100 | 80 to 100 | 80 to 100 | 80 to 100 | 80 to 100 |
| CCCCCO[C@@H]1[C@@H](Cc2ccc(Cl)cc2Cl)COC[C@H](NC(=O)c2nccc(OC)c2OCOC(=O)COCC)C(=O)O[C@H]1C [Compound F122] | 80 to 100 |  | 80 to 100 |  | 0 to 80 | 80 to 100 |
| CCCCCO[C@@H]1[C@@H](Cc2ccc(Cl)cc2Cl)COC[C@H](NC(=O)c2nccc(OC)c2OC(=O)CCOC)C(=O)O[C@H]1C [Compound F123] | 80 to 100 |  | 80 to 100 |  |  | 80 to 100 |

From patent US9179674B2, “Macrocyclic picolinamide compounds with fungicidal activity” (DOW AGROSCIENCES LLC, priority 2013, dated 2015)
